Patent publication US4572895A, “Process for preparing an antibiotic complex by culturing actinomyces strain ATCC 39417” (priority 1985, dated 1986)
In brackets after ≈: the same amount, converted by molar mass. Read-outs that look alike come from different tables or passages of the source.

Tests used:
[1] = system: Aspergillus fumigatus IAM 2530; assay: MIC, serial two-fold agar dilution; type: cell-based; conditions: IAM2530, Sabouraud agar
Propionibacterium acnes = assay: MIC, serial two-fold agar dilution; type: cell-based; conditions: Cutibacterium acnes; GAM agar, anaerobe
[2] = system: Pseudomonas aeruginosa D15; assay: MIC, serial two-fold agar dilution; type: cell-based; conditions: nutrient agar
[3] = system: Staphylococcus aureus 209P; assay: MIC, serial two-fold agar dilution; type: cell-based; conditions: nutrient agar
melanotic melanoma B16 [4] = assay: antitumor activity, B16 melanoma in mice; conditions: qd 1→9
[5] = system: Bacillus subtilis PCI 219; assay: MIC, serial two-fold agar dilution; type: cell-based; conditions: PCI219, nutrient agar
Bacteroides fragilis = assay: MIC, serial two-fold agar dilution; type: cell-based; conditions: GAM agar, anaerobe
melanotic melanoma B16 [6] = conditions: qd 1→9
Escherichia coli NIHJ = assay: MIC, serial two-fold agar dilution; type: cell-based; conditions: nutrient agar
lymphoid leukemia L1210 [7] = assay: antitumor activity, L1210 leukemia in mice; conditions: qd 1→9
[8] = system: Cryptococcus neoformans D49; assay: MIC, serial two-fold agar dilution; type: cell-based; conditions: Sabouraud agar
Clostridium perfringens = assay: microbe, parasite or virus in culture; type: cell-based
[9] = system: Staphylococcus aureus Smith; assay: MIC, serial two-fold agar dilution; type: cell-based; conditions: nutrient agar
[10] = system: lymphocytic leukemia P388; assay: antitumor activity, P388 leukemia in mice; conditions: qd 1→9
Micrococcus flavus D12 = assay: MIC, serial two-fold agar dilution; type: cell-based; conditions: nutrient agar
[11] = system: Candida albicans IAM 4888; assay: MIC, serial two-fold agar dilution; type: cell-based; conditions: IAM4888, Sabouraud agar
[12] = system: Trichophyton mentagrophytes D155; assay: MIC, serial two-fold agar dilution; type: cell-based; conditions: Sabouraud agar
[13] = system: Micrococcus luteus PCI 1001; assay: MIC, serial two-fold agar dilution; type: cell-based; conditions: PCI1001, nutrient agar
lymphoid leukemia L1210 [14] = conditions: qd 1→9
[15] = system: lymphocytic leukemia P388; conditions: qd 1→9
[16] = system: Klebsiella pneumoniae D11; assay: MIC, serial two-fold agar dilution; type: cell-based; conditions: nutrient agar
[17] = system: gram-negative bacteria and fungi; assay: antibacterial/antifungal activity (MIC), summary; type: cell-based
[18] = system: P388, L1210 and B16 tumors; assay: antitumor activity in mice, summary over P388, L1210 and B16; type: in vivo, BDF1 mice; conditions: experimental mouse tumors
[19] = system: aerobic gram-positive bacteria and anaerobic bacteria; assay: antibacterial activity, summary; type: cell-based
Excerpt: Nutrient agar medium was used for gram-positive and gram-negative bacteria, GAM agar medium for anaerobes and Sabouraud agar medium for fungi.

solubility = type: physicochemical; conditions: acidic water
Clostridium difficile = assay: MIC, serial two-fold agar dilution; type: cell-based; conditions: Clostridioides difficile; GAM agar, anaerobe

CO[C@H]1[C@@H](O)[C@@H](C)O[C@H](O[C@H]2[C@H](Oc3cccc4c(O)c5c(=O)oc6ccc(C)c7c(=O)oc(c34)c5c67)O[C@H](C)[C@H](O)[C@@H]2O)[C@@H]1O [Chartreusin, reference compound]
MIC [1]: > 100 µg/mL | MIC (Propionibacterium acnes): 3.1 µg/mL (≈ 4.84 µM) | MIC [2]: > 100 µg/mL | MIC [3]: 3.1 µg/mL (≈ 4.84 µM) | Average wt. change on day 5 (melanotic melanoma B16 [4]; 0.3 mg/kg/day ip): +1.8 g | Survivors on day 5 (melanotic melanoma B16 [4]; 0.3 mg/kg/day ip): 6/6 | Survivors on day 45 (melanotic melanoma B16 [4]; 0.3 mg/kg/day ip): 0/6 | T/C (melanotic melanoma B16 [4]; 0.3 mg/kg/day ip): 100% | Average wt. change on day 5 (melanotic melanoma B16 [4]; 1 mg/kg/day ip): +2.3 g | Survivors on day 5 (melanotic melanoma B16 [4]; 1 mg/kg/day ip): 6/6 | T/C (melanotic melanoma B16 [4]; 1 mg/kg/day ip): 114% | Average wt. change on day 5 (melanotic melanoma B16 [4]; 3 mg/kg/day ip): +2.3 g | Survivors on day 5 (melanotic melanoma B16 [4]; 3 mg/kg/day ip): 6/6 | Survivors on day 45 (melanotic melanoma B16 [4]; 3 mg/kg/day ip): 0/6 | Average wt. change on day 5 (melanotic melanoma B16 [4]; 10 mg/kg/day ip): +1.7 g | Survivors on day 5 (melanotic melanoma B16 [4]; 10 mg/kg/day ip): 6/6 | Survivors on day 45 (melanotic melanoma B16 [4]; 10 mg/kg/day ip): 0/6 | MIC [5]: 0.4 µg/mL (≈ 0.624 µM) | MIC (Bacteroides fragilis): 6.3 µg/mL (≈ 9.83 µM) | MST (melanotic melanoma B16 [6]; 0.3 mg/kg/day ip): 14.0 days | MST (melanotic melanoma B16 [6]; 1 mg/kg/day ip): 16.0 days | MST (melanotic melanoma B16 [6]; 3 mg/kg/day ip): 20.5 days | MST (melanotic melanoma B16 [6]; 10 mg/kg/day ip): 25.0 days | MIC (Escherichia coli NIHJ): > 100 µg/mL | Average wt. change on day 5 (lymphoid leukemia L1210 [7]; 0.1 mg/kg/day ip): +3.1 g | Survivors on day 5 (lymphoid leukemia L1210 [7]; 0.1 mg/kg/day ip): 6/6 | Survivors on day 45 (lymphoid leukemia L1210 [7]; 0.1 mg/kg/day ip): 0/6 | T/C (lymphoid leukemia L1210 [7]; 0.1 mg/kg/day ip): 100% | Average wt. change on day 5 (lymphoid leukemia L1210 [7]; 0.3 mg/kg/day ip): +3.2 g | Survivors on day 5 (lymphoid leukemia L1210 [7]; 0.3 mg/kg/day ip): 6/6 | Survivors on day 45 (lymphoid leukemia L1210 [7]; 0.3 mg/kg/day ip): 0/6 | T/C (lymphoid leukemia L1210 [7]; 0.3 mg/kg/day ip): 100% | Average wt. change on day 5 (lymphoid leukemia L1210 [7]; 1 mg/kg/day ip): +1.9 g | Survivors on day 5 (lymphoid leukemia L1210 [7]; 1 mg/kg/day ip): 6/6 | Survivors on day 45 (lymphoid leukemia L1210 [7]; 1 mg/kg/day ip): 0/6 | T/C (lymphoid leukemia L1210 [7]; 1 mg/kg/day ip): 113% | Average wt. change on day 5 (lymphoid leukemia L1210 [7]; 3 mg/kg/day ip): +1.4 g | Survivors on day 5 (lymphoid leukemia L1210 [7]; 3 mg/kg/day ip): 6/6 | Survivors on day 45 (lymphoid leukemia L1210 [7]; 3 mg/kg/day ip): 0/6 | T/C (lymphoid leukemia L1210 [7]; 3 mg/kg/day ip): 113% | Average wt. change on day 5 (lymphoid leukemia L1210 [7]; 10 mg/kg/day ip): +1.3 g | Survivors on day 5 (lymphoid leukemia L1210 [7]; 10 mg/kg/day ip): 6/6 | Survivors on day 45 (lymphoid leukemia L1210 [7]; 10 mg/kg/day ip): 0/6 | MIC [8]: > 100 µg/mL | MIC (Clostridium perfringens): 1.6 µg/mL (≈ 2.5 µM) | MIC [9]: 6.3 µg/mL (≈ 9.83 µM) | Average wt. change on day 5 ([10]; 0.1 mg/kg/day ip): +2.8 g | Survivors on day 5 ([10]; 0.1 mg/kg/day ip): 6/6 | Survivors on day 45 ([10]; 0.1 mg/kg/day ip): 0/6 | T/C ([10]; 0.1 mg/kg/day ip): 100% | Average wt. change on day 5 ([10]; 0.3 mg/kg/day ip): +2.0 g | Survivors on day 5 ([10]; 0.3 mg/kg/day ip): 6/6 | Survivors on day 45 ([10]; 0.3 mg/kg/day ip): 0/6 | T/C ([10]; 0.3 mg/kg/day ip): 117% | Average wt. change on day 5 ([10]; 1 mg/kg/day ip): +1.3 g | MST ([10]; 1 mg/kg/day ip): 14.0 days | Survivors on day 5 ([10]; 1 mg/kg/day ip): 6/6 | Survivors on day 45 ([10]; 1 mg/kg/day ip): 0/6 | Average wt. change on day 5 ([10]; 3 mg/kg/day ip): +1.5 g | MST ([10]; 3 mg/kg/day ip): 15.0 days | Survivors on day 5 ([10]; 3 mg/kg/day ip): 6/6 | Survivors on day 45 ([10]; 3 mg/kg/day ip): 0/6 | Average wt. change on day 5 ([10]; 10 mg/kg/day ip): +1.3 g | Survivors on day 5 ([10]; 10 mg/kg/day ip): 6/6 | Survivors on day 45 ([10]; 10 mg/kg/day ip): 0/6 | MIC (Micrococcus flavus D12): 0.4 µg/mL (≈ 0.624 µM) | MIC [11]: > 100 µg/mL | MIC [12]: > 100 µg/mL | MIC [13]: 0.8 µg/mL (≈ 1.25 µM) | MST (lymphoid leukemia L1210 [14]; 0.1 mg/kg/day ip): 8.0 days | MST (lymphoid leukemia L1210 [14]; 0.3 mg/kg/day ip): 8.0 days | MST (lymphoid leukemia L1210 [14]; 1 mg/kg/day ip): 9.0 days | MST (lymphoid leukemia L1210 [14]; 3 mg/kg/day ip): 9.0 days | MST (lymphoid leukemia L1210 [14]; 10 mg/kg/day ip): 11.5 days | MST ([15]; 0.1 mg/kg/day ip): 9.0 days | MST ([15]; 0.3 mg/kg/day ip): 10.5 days | MST ([15]; 10 mg/kg/day ip): 19.5 days | MIC [16]: > 100 µg/mL | activity against gram-negative bacteria and fungi [17]: inactive

Cc1ccc2oc(=O)c3c(O)c4cccc(O[C@@H]5O[C@H](C)[C@H](O)[C@](C)(O)[C@H]5O)c4c4oc(=O)c1c2c34 [BBM-2478B]
MIC [1]: > 100 µg/mL | MIC [2]: > 100 µg/mL | MIC [3]: 3.1 µg/mL (≈ 6.27 µM) | antitumor activity [18]: devoid of antitumor activity | MIC [5]: 0.8 µg/mL (≈ 1.62 µM) | MIC (Escherichia coli NIHJ): > 100 µg/mL | MIC [8]: > 100 µg/mL | antibacterial activity [19]: potent antibacterial activity | MIC [9]: 6.3 µg/mL (≈ 12.7 µM) | MIC (Micrococcus flavus D12): 1.6 µg/mL (≈ 3.24 µM) | MIC [11]: > 100 µg/mL | MIC [12]: > 100 µg/mL | MIC [13]: 3.1 µg/mL (≈ 6.27 µM) | solubility in acidic water (solubility): insoluble | MIC (Clostridium difficile): 25 µg/mL (≈ 50.6 µM) | MIC [16]: > 100 µg/mL | activity against gram-negative bacteria and fungi [17]: inactive
